Results published in article PMC7698045, “Milk Protein-Derived Antioxidant Tetrapeptides as Potential Hypopigmenting Agents” (Antioxidants, 2020).
Like-named read-outs stand apart in the source and are kept apart here. Ends that are not written are not given here. Peptide text beside a SMILES is read from it.

How the values were obtained:
B16F10 cells = assay: Melanogenesis inhibition test in α-MSH-stimulated B16F10 cells; assay type: cell-based
Protocol: (§1) B16F10 cells were cultured in DMEM that was supplemented with 10% (v/v) fetal bovine serum (FBS), 50 μg/mL streptomycin and 50 U/mL penicillin at 37 °C in 5% CO2. Mel-Ab cells were cultured in DMEM with 10% (v/v) FBS, 100 nM 12-O-tetradecanoylphorbol-13-acetate (TPA), 1 nM cholera toxin (CT), 50 μg/mL streptomycin and 50 U/mL penicillin at 37 °C in 5% CO2.
(§2) The effects of the inhibitors (peptides and arbutin) on melanin formation in Mel-Ab cells and B16F10 cells were evaluated. B16F10 cells (5 × 10^3 per well) were cultured in 96-well plates and incubated with the samples (1, 5, 10, 50 and 100 μM) in a complete medium that contained α-MSH for 4 days. Then, the medium was collected from each well and the optical densities were measured at 405 nm. Mel-Ab cells (5 × 10^4 per well) were cultured in 6-well plates and incubated with the samples (1, 5, 10, 50 and 100 μM) in the complete medium for 3 days. Next, the treated cells were then dissolved in 1 mL of 1 N NaOH at 100 °C for 30 min and centrifuged for 20 min at 16,000 g, after which the optical densities of the supernatants were measured at 400 nm.
The percentage of melanin content was calculated via following equation: % melanin content = (A/B) × 100 where A represents the optical density of the sample-treated group and B represents the optical density of the untreated control group. […]

Mel-Ab cells = assay: Melanogenesis inhibition test in Mel-Ab cells; assay type: cell-based, mouse
Protocol: as §1, §2
The percentage of melanin content was calculated via following equation: % melanin content = (A/B) × 100 where A represents the optical density of the sample-treated group and B represents the optical density of the untreated control group. All the tests were conducted independently three times. Each experiment was performed in triplicate and the results were averaged.

mushroom tyrosinase = assay: Mushroom tyrosinase inhibition test with L-DOPA as substrate; assay type: biochemical; details: for IC50: L-DOPA 2.5 mM, mushroom tyrosinase 100 µg/mL (428 U/mL), 25 °C, 10 min, read-out: IC50 (tyrosinase inhibitory activity); for effect on dopachrome formation (UV-Vis scanning): dopachrome at 475 nm, L-DOPA and mushroom tyrosinase
Protocol: A mushroom tyrosinase inhibition test was carried out with L-DOPA as a substrate. Two hundred fifty microliters of phosphate buffer (0.1 M, pH 6.8), 250 µL of 2.5 mM L-DOPA, 200 µL of water and 25 µL of oligopeptide in DMSO at various concentrations were mixed. The reaction mixture was incubated at 25 °C for 10 min after the addition of 25 µL of aqueous mushroom tyrosinase solution (100 µg/mL, 428 U/mL) and then the UV absorbance was measured at 475 nm. The following equation was used to calculate the percentage of mushroom tyrosinase inhibition: % Tyrosinase Inhibition = (1 − A/B) × 100 where A represents the absorbance at 475 nm of the reaction mixture that contained the inhibitor and B represents the absorbance at 475 nm of a reference reaction mixture that contained DMSO instead of the inhibitor. The concentration of half-maximal inhibitory activity (IC50) values were determined by measuring the tyrosinase inhibitory activity at various peptide concentrations (10, 50, 100, 250 and 500 µM). Each experiment was performed in triplicate and the results were averaged.

[1] = Lipid peroxidation ferric thiocyanate assay (antioxidant activity); details: lipid peroxidation inhibition after 24 h, 50 °C, dark, peptide 250 μM; for antioxidant activity relative to the original peptide (enhancement): original peptide set to 1.0
Protocol: Linoleic acid and Tween 20 were mixed in 0.1 M sodium phosphate buffer (pH 7.0) to prepare a linoleic acid emulsion (50 mM). […] These reaction mixtures were tightly capped by septa in glass vials and kept at 50 °C for 30 h under dark conditions. To evaluate the antioxidant activity of the oligopeptides by the quantification of lipid peroxidation inhibition, the ferric thiocyanate assay was used with some modifications. An aliquot of the reaction mixture (25 µL) was withdrawn at intervals and mixed with 1.175 mL of 75% ethanol, 25 µL of 20 mM ferrous chloride in 3.5% HCl and 25 µL of 30% ammonium thiocyanate. The absorbance was measured at 500 nm after 3 min, which was when the color development by the ferric thiocyanate complex was maximal. Each experiment was conducted in triplicate and the results were averaged.

[2] = tested on: phosphorylation of CREB at serin-133; details: 100 µM, α-MSH-treated B16F10 cells
Protocol: For the Western blot analysis, B16F10 cells were seeded into 6-well plates. After 24 h, the cultured medium was replaced with serum-free DMEM and incubated for another 24 h. Then, the cells were treated with samples in new serum-free media and incubated for 0–360 min. Cells were lysed with RIPA buffer containing protease inhibitor cocktail and phosphatase inhibitor cocktail. Protein concentration was determined using the Bicinchoninic acid (BCA) protein assay kit (Thermo Scientific, Rockford, IL, USA). Protein (20 μg) samples were separated on 4–20% polyacrylamide gels and then transferred to polyvinylidene fluoride (PVDF) membranes (#1704156, Bio-Rad, Hercules, CA, USA), which were blocked with 5% nonfat dry milk in Tris buffered saline solution containing 0.1% Tween 20. The blots were incubated with the primary antibodies at 4 °C overnight. Membrane-bound primary antibodies were detected using HRP-conjugated secondary antibodies and chemiluminescent substrate. Digital images of the blotted membranes were obtained and analyzed using ChemiDoc XRS+ Systems with Image Lab Software (Version 5.1) (Bio-Rad). The relative protein expression of p-cAMP response element-binding protein (CREB) was normalized to that of CREB and glyceraldehyde 3-phosphate dehydrogenase (GAPDH).

Compound	inhibition of melanin production (in words) (B16F10 cells; α-MSH treated B16F10 cells, various concentrations)	reduction of melanin content (Mel-Ab cells; 100 µM, 3 days) [%]	suppression of melanin production (B16F10 cells; 50 µM, B16F10 cells)	reduction of melanin content (Mel-Ab cells; 5 μM) [%]	tyrosinase inhibition mode (Lineweaver-Burk plot) (mushroom tyrosinase; Km values increase and Vmax values decrease with increasing peptide concentration)	IC50 (mushroom tyrosinase) [µM]	effect on dopachrome formation (UV-Vis scanning) (mushroom tyrosinase)	antioxidant activity relative to the original peptide (enhancement) [1]	suppression of phosphorylation of CREB ([2]; 10 min) [%]	suppression of phosphorylation of CREB ([2]; 180 min) [%]	decrease of antioxidant activity relative to the original peptide [1]
CC[C@H](C)[C@H](NC(=O)[C@H](Cc1c[nH]cn1)NC(=O)[C@H](CCSC)NC(C)=O)C(=O)N[C@@H](CCCNC(=N)N)C(N)=O [Ac-MHIR] (Ac-MHIR-NH2)	barely inhibits melanin production	–	–	–	–	–	–	–	–	–	–
MHIRL-NH2 [MHIRL, methionine-histidine-isoleucine-arginine-leucine amide]	–	28	–	–	–	–	–	–	–	–	–
Methionine-histidine-isoleucine-arginine amide [MHIR]	–	57	up to 80%	30	mixed-mode of inhibition	83	sufficiently suppress dopachrome formation	1.3–1.8 times	18	37	–
histidine-isoleucine-arginine-leucine amide [HIRL]	–	33	–	–	–	70	sufficiently suppress dopachrome formation	1.3–1.8 times	–	–	more than 50%
